Assay: solvent given as SMILES

Work on `CC[n+]1c(-c2ccccc2)c2cc(NC(N)=O)ccc2c2ccc(N)cc21` yielded an emission maximum (in O) of 601 nm.

`CCCCCN(c1ccccc1)c1ccc2c(c1)C(CC)(CC)c1cc(/C=C/c3ccc(/C=C(\C#N)C(=O)O)s3)ccc1-2` gave an emission maximum (in C1CCOC1) of 597 nm, an emission maximum (in C1COCCO1) of 618 nm and an emission maximum (in CC#N) of 496 nm. It also gave an emission maximum (in CC(C)=O) of 574 nm, an emission maximum (in CCOC(C)=O) of 580 nm and an emission maximum (in CN(C)C=O) of 504 nm. It also gave an emission maximum (in CS(C)=O) of 517 nm and an emission maximum (in ClCCl) of 584 nm.

Compound `Cc1ccc(N(c2ccc(C)cc2)c2ccc(-c3ccc(-c4ccc(N(c5ccc(C)cc5)c5ccc(C)cc5)cc4)c4nsnc34)cc2)cc1` has an emission maximum (in Cc1ccccc1) of 628 nm and an emission maximum (in ClCCl) of 609 nm.

Compound `Fc1ccc(-c2nc3n(c2-c2ccncc2)CCS3)cc1` has an emission maximum (in C1CCCCC1) of 397.5 nm, an emission maximum (in C1CCOC1) of 414 nm and an emission maximum (in C1COCCO1) of 412 nm. The emission maximum (in CC#N) was 420 nm, the emission maximum (in CC(C)(C)O) was 420 nm and the emission maximum (in CC(C)=O) was 418 nm. The emission maximum (in CC(C)O) was 436 nm, the emission maximum (in CCO) was 438 nm and the emission maximum (in CCOC(C)=O) was 414 nm. It also gave an emission maximum (in CN(C)C=O) of 426 nm, an emission maximum (in CNC=O) of 446 nm and an emission maximum (in CO) of 439 nm. The emission maximum (in CS(C)=O) was 436 nm, the emission maximum (in Cc1ccc(C)cc1) was 411.5 nm and the emission maximum (in Cc1ccccc1) was 412 nm. It also gave an emission maximum (in ClC(Cl)Cl) of 413.5 nm, an emission maximum (in ClCCl) of 415 nm and an emission maximum (in O) of 415 nm. The emission maximum (in OCCO) was 440.5 nm and the emission maximum (in c1ccncc1) was 434 nm.

`c1ccc(Cc2c3ccc(=[N+]4CCCCC4)cc-3oc3cc(N4CCCCC4)ccc23)cc1` gave an emission maximum (in ClCCl) of 582 nm.

`F[B-]1(F)n2c(Oc3ccccc3)c(Cl)c(Br)c2C(Oc2ccccc2)=C2C(Br)=C(Cl)C(Oc3ccccc3)=[N+]21` showed an emission maximum (in ClCCl) of 544 nm.

With `CNc1ccc2c(c1)-c1ccccc1C2=O` the emission maximum (in C1CCCCC1) was 489 nm, the emission maximum (in CC#N) was 548 nm and the emission maximum (in CCO) was 583 nm. The emission maximum (in c1ccccc1) was 509 nm.

In the case of `Cc1cc(N2c3ccccc3C(C)(C)c3ccccc32)ccc1-c1cc(-c2ccc(N3c4ccccc4C(C)(C)c4ccccc43)cc2C)ncn1`, the emission maximum (in Cc1ccccc1) is reported as 477 nm and the emission maximum (in O=P(c1ccccc1)(c1ccccc1)c1ccccc1Oc1ccccc1P(=O)(c1ccccc1)c1ccccc1) is reported as 477 nm.

For `CN1CCCc2cc(C3=Cc4cccc[n+]4[B-](F)(F)O3)ccc21`, the emission maximum (in ClC(Cl)Cl) was 508 nm.

For `Cc1cc(C)c2c(c1)c1cc(C)cc(C)c1n2-c1ccc2c(c1)B(c1c(C(C)C)cc(C(C)C)cc1C(C)C)c1cc(-n3c4c(C)cc(C)cc4c4cc(C)cc(C)c43)ccc1N2c1ccccc1`, the emission maximum (in C1CCOC1) was 447.96 nm, the emission maximum (in CCOC(C)=O) was 447.96 nm and the emission maximum (in Cc1ccccc1) was 441.5 nm. For the same compound, the emission maximum (in ClCCl) was 453.4 nm and the emission maximum (in c1cc(-c2cccc(-n3c4ccccc4c4ccccc43)c2)cc(-n2c3ccccc3c3ccccc32)c1) was 451 nm.

`O=c1oc2ccccc2c(O)c1C(CC(O)c1ccc(-c2ccc(Br)cc2)cc1)c1ccccc1` (centres undefined) showed an emission maximum (in CC#N) of 403 nm, an emission maximum (in CCO) of 392 nm and an emission maximum (in CO) of 394 nm. The emission maximum (in O) was 397 nm.

In the case of `Cc1cc2ccccc2c2c1c1ccccc1n2-c1ccc(C#N)cc1`, the emission maximum (in ClCCl) is reported as 470 nm.

For `Clc1cc(Cl)c([C](c2c(Cl)cc(Cl)cc2Cl)c2c(Cl)cc(-n3c4ccccc4c4ccccc43)cc2Cl)c(Cl)c1`, the emission maximum (in C1CCCCC1) was 628 nm and the emission maximum (in ClC(Cl)Cl) was 680 nm.

`CC(C)c1cccc(C(C)C)c1N1C(=O)c2cccc3c(Oc4ccc(Cl)cc4)ccc(c23)C1=O` gave an emission maximum (in ClCCl) of 423 nm.

With `CC1=[N+]2C(=C(NCc3ccccc3)c3ccc(C)n3[B-]2(F)F)C=C1c1cc2n(c1)[B-](F)(F)[N+]1=CC=CC1=C2c1c(C)cc(C)cc1C` the emission maximum (in C1CCCCC1) was 636 nm and the emission maximum (in CCOC(C)=O) was 700 nm.

With `S=c1[nH]nc(-c2ccc(/C=C/c3ccc(-c4n[nH]c(=S)o4)cc3)cc2)o1` the emission maximum (in CN(C)C=O) was 401 nm.

In the case of `Cc1ccccc1N1c2c(sc3ccccc23)Sc2sc3ccccc3c21`, the emission maximum (in ClCCl) is reported as 583 nm.

With `Cc1ccc(C2=C3C=C4C(=[N+]3[B-](F)(F)n3c2cc2c3-c3ccccc3C23c2ccccc2-c2ccccc23)c2ccccc2C42c3ccccc3-c3ccccc32)cc1` the emission maximum (in C1CCOC1) was 642 nm.

`Cc1cc(C)c(B2c3cc(C(C)(C)C)ccc3-c3cc4ccccc4c4cc(C(C)(C)C)cc2c34)c(C)c1` gave an emission maximum (in C1CCCCC1) of 420 nm.

Reference: the Deep4Chem optical property database
